Reference: US11786494B2, “Methods of modulation of branched chain acids and uses thereof” (Baylor College of Medicine, priority 2009, dated 2023)

Legend:
[1] = biological target: T1, mitochondrial branched chain amino transferase (BCATm) (Homo sapiens, UniProt O15382); experiment: BCATm activity with purified recombinant enzyme; assay type: biochemical; conditions: pH 8.0, 298 K
T1 sequence (O15382 28-392): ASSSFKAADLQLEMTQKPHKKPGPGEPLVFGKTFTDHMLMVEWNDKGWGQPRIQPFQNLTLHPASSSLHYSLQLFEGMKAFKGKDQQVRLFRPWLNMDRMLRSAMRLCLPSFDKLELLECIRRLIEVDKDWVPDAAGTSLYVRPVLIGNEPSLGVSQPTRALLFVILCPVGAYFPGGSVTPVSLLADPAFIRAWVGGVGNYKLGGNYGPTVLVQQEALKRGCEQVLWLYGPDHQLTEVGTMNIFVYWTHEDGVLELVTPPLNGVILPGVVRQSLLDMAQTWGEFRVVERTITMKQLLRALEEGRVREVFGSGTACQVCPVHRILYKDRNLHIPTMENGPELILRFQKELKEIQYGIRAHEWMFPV
Method: (§1) To determine the effect of phenylbutyrate on individual BCAA catabolic enzymes, activities of mitochondrial branched chain amino transferase (BCATm) and BCKDC enzymes were measured with and without phenylbutyrate using purified recombinant enzymes. BCATm generates the BCKA products that are elevated in MSUD and are the substrates for BCKDC. BCATm activity was measured at pH 8.0 and 298 K as described in Example 2. Kinetics of the E1 decarboxylase reaction with and without phenylbutyrate were determined in the presence of an artificial electron acceptor 2, 6-dichlorophenolindophenol (DCPIP). The assay mixture contained 100 mM potassium phosphate, pH 7.5, 2.0 mM MgCl2, 0.2 mM thiamin diphosphate (ThDP) and 0.1 mM DCPIP. The rate of decarboxylation at 30° C. was measured by monitoring the reduction of the dye at 600 nm (24, 25). For the overall BCKDC activity assay, the enzymes were exchanged into phosphate buffer (30 mM potassium phosphate, pH 7.5) containing 5 mM DTT using a PD-10 column and the enzyme concentrations were calculated from the absorption maxima at 280 nm. […] The overall reaction was monitored by formation of NADH at 340 nm. The apparent rate constants (kapp) at different substrate concentrations for all of the above assays were determined from the absorption changes at the individual wavelength maximum. […]

[2] = biological target: T2, E1 (unphosphorylated) of BCKDC (Homo sapiens, UniProt P12694+P21953); experiment: E1 catalyzed decarboxylase activity (DCPIP assay); assay type: biochemical
T2 sequence (P12694 46-445): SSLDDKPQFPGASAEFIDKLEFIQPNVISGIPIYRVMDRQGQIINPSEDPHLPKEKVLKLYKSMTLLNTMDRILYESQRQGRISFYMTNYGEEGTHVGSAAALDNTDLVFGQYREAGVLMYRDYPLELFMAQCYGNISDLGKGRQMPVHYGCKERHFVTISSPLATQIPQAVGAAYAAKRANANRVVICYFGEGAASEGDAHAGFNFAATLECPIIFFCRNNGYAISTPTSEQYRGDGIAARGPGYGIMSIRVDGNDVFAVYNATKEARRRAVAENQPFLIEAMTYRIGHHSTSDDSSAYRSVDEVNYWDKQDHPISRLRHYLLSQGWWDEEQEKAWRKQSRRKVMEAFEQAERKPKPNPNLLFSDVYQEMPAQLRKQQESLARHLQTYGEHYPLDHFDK
T2 sequence (P21953 51-392): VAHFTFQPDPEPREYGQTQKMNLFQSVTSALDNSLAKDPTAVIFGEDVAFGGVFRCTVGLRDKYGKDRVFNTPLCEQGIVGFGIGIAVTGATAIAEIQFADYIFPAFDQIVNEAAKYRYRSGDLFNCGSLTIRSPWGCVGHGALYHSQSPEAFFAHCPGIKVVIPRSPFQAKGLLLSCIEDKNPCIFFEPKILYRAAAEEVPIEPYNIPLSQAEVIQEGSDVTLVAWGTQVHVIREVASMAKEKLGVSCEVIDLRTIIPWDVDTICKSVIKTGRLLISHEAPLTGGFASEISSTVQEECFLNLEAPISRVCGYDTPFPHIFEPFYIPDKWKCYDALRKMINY
Method: as §1

BCKDC [3] = biological target: T3, BCKDC (Homo sapiens, UniProt P12694+P21953); experiment: Overall BCKDC activity assay (reconstituted E1, lip-E2, E3; NADH formation); assay type: biochemical; conditions: Activity of BCKDC, [+] Phenylbutyrate
T3 sequence (P12694 46-445): T2 sequence (P12694 46-445)
T3 sequence (P21953 51-392): T2 sequence (P21953 51-392)
Method: as §1

BCKDC [4] = experiment: Leucine oxidation in lymphoblast cell lines without CIC; assay type: cell-based, human
Method: FIGS. 7A-7C. FIGS. 7A and 7B show leucine oxidation in lymphoblast cells from control subjects (C-660, C-661) and MSUD patients (P-1, -2, -3, -4, -5) untreated or treated with 1 mM phenylbutyrate for 48 h. Leucine oxidation was measured by using radioactive assay as described in Materials and Methods and is expressed in pmol CO2 released/min/mg protein. Values are means±SD (n=3), * p≥0.05, **p≥0.01. […] Images are representative of three independent experiments.
Following treatment with phenylbutyrate, enzyme activity in control and patients' lymphoblast cell lines was measured. Transformed lymphoblast cell lines were available from all 5 MSUD patients and from 2 controls to measure BCKDC activity. Lymphoblasts were incubated for 48 h with and without 1 mM phenylbutyrate (a lower concentration of phenylbutyrate was used because of higher sensitivity of these cells as compared to fibroblasts to the drug) then BCKDC activity was measured without α-chloroisocaproate addition (CIC). […] Thus, in cells from the two patients with E2 mutations (Table 7), activation of enzyme activity results from inhibition of phosphorylation state of E1α, in specific embodiments of the invention.

O=C([O-])CCCc1ccccc1.[Na+] [phenylbutyrate, sodium 4-phenylbutyrate]
BCATm kinetics including kcat and Km [1]: no effect
kcat, KMV ([2]; E1 catalyzed decarboxylase activity, [+] Phenylbutyrate): 0.3 ± 0.0167 s⁻¹
unphosphorylated E1 (fully active enzyme) catalyzed decarboxylation of all three BCKA ([2]; increased kcat, lowered Km): enhanced
kcat, KMV (BCKDC [3]): 3.767 ± 0.3 s⁻¹
leucine oxidation (BCKDC [4]; MSUD patient lymphoblasts with the exception of patient 5, 1 mM for 48 h): significantly enhanced
leucine oxidation (BCKDC [4]; control lymphoblasts (C-660, C-661), 1 mM for 48 h): significantly enhanced
leucine oxidation increase (BCKDC [4]; patient 5 lymphoblasts, 1 mM for 48 h): not significant
